According to the NIST ThermoML archive (doi:10.1021/je400783h):
Numbers after ± are expanded uncertainties.

Conditions: for mass density / vapor or sublimation pressure / viscosity / speed of sound: Liquid; for vapor or sublimation pressure: Ebulliometric method (Recirculating still); for surface tension liquid-gas: Drop volume; for viscosity: Capillary tube (Ostwald / Ubbelohde) method; for speed of sound: Pulse-echo method

OCC1CCCO1 (stereo not given) [2-tetrahydrofurylmethanol]
Conditions	mass density [kg/m3]	speed of sound [m/s]	viscosity [mPa·s]
313.15 K, 7500 kPa	1041.89 ± 0.46	–	–
313.15 K, 10000 kPa	1043.41 ± 0.48	–	–
313.15 K, 20000 kPa	1048.93 ± 0.57	–	–
313.15 K, 30000 kPa	1054.21 ± 0.68	–	–
313.15 K, 40000 kPa	1059.19 ± 0.81	–	–
313.15 K, 50000 kPa	1063.91 ± 0.94	–	–
313.15 K, 60000 kPa	1068.44 ± 1.1	–	–
315.65 K, 101.33 kPa	–	1424.1 ± 1.2	3.374 ± 0.072
318.15 K, 100 kPa	1032.83 ± 0.39	–	–
318.15 K, 101.33 kPa	–	1415.4 ± 1.2	3.177 ± 0.067
318.15 K, 2500 kPa	1034.57 ± 0.41	–	–
318.15 K, 5000 kPa	1036.11 ± 0.42	–	–
318.15 K, 7500 kPa	1037.62 ± 0.44	–	–
318.15 K, 10000 kPa	1039.11 ± 0.46	–	–
318.15 K, 20000 kPa	1044.81 ± 0.55	–	–
318.15 K, 30000 kPa	1050.15 ± 0.65	–	–
318.15 K, 40000 kPa	1055.24 ± 0.77	–	–
318.15 K, 50000 kPa	1060.12 ± 0.91	–	–
318.15 K, 60000 kPa	1064.68 ± 1.1	–	–
320.65 K, 101.33 kPa	–	1406.8 ± 1.2	2.996 ± 0.064
323.15 K, 100 kPa	1028.47 ± 0.39	–	–
323.15 K, 101.33 kPa	–	1398.1 ± 1.2	2.83 ± 0.06
323.15 K, 2500 kPa	1030.3 ± 0.4	–	–
323.15 K, 5000 kPa	1031.87 ± 0.41	–	–
323.15 K, 7500 kPa	1033.41 ± 0.43	–	–
323.15 K, 10000 kPa	1034.93 ± 0.45	–	–
323.15 K, 20000 kPa	1040.79 ± 0.53	–	–
323.15 K, 30000 kPa	1046.28 ± 0.63	–	–
323.15 K, 40000 kPa	1051.44 ± 0.74	–	–
323.15 K, 50000 kPa	1056.41 ± 0.87	–	–
323.15 K, 60000 kPa	1061.07 ± 1	–	–
325.65 K, 101.33 kPa	–	1389.4 ± 1.2	2.677 ± 0.057
328.15 K, 100 kPa	1024.08 ± 0.38	–	–
328.15 K, 101.33 kPa	–	1380.8 ± 1.2	2.535 ± 0.054
328.15 K, 2500 kPa	1025.88 ± 0.39	–	–
328.15 K, 5000 kPa	1027.49 ± 0.4	–	–
328.15 K, 7500 kPa	1029.13 ± 0.42	–	–
328.15 K, 10000 kPa	1030.63 ± 0.43	–	–
328.15 K, 20000 kPa	1036.6 ± 0.51	–	–
328.15 K, 30000 kPa	1042.2 ± 0.6	–	–
328.15 K, 40000 kPa	1047.5 ± 0.71	–	–
328.15 K, 50000 kPa	1052.52 ± 0.83	–	–
328.15 K, 60000 kPa	1057.3 ± 0.97	–	–
330.65 K, 101.33 kPa	–	1372.1 ± 1.2	2.404 ± 0.051
333.15 K, 100 kPa	1019.68 ± 0.37	–	–
333.15 K, 101.33 kPa	–	1363.5 ± 1.2	2.282 ± 0.049
333.15 K, 2500 kPa	1021.52 ± 0.38	–	–
333.15 K, 5000 kPa	1023.18 ± 0.39	–	–
333.15 K, 7500 kPa	1024.84 ± 0.4	–	–
333.15 K, 10000 kPa	1026.39 ± 0.42	–	–
333.15 K, 20000 kPa	1032.49 ± 0.49	–	–
333.15 K, 30000 kPa	1038.22 ± 0.58	–	–
333.15 K, 40000 kPa	1043.64 ± 0.68	–	–
333.15 K, 50000 kPa	1048.73 ± 0.8	–	–
333.15 K, 60000 kPa	1053.6 ± 0.93	–	–
335.65 K, 101.33 kPa	–	1354.8 ± 1.2	2.169 ± 0.046
338.15 K, 100 kPa	1015.24 ± 0.36	–	–
338.15 K, 101.33 kPa	–	1346.2 ± 1.2	2.064 ± 0.044
338.15 K, 2500 kPa	1017.04 ± 0.37	–	–
338.15 K, 5000 kPa	1018.75 ± 0.38	–	–
338.15 K, 7500 kPa	1020.45 ± 0.39	–	–
338.15 K, 10000 kPa	1022.06 ± 0.4	–	–
338.15 K, 20000 kPa	1028.31 ± 0.47	–	–
338.15 K, 30000 kPa	1034.16 ± 0.55	–	–
338.15 K, 40000 kPa	1039.68 ± 0.65	–	–
338.15 K, 50000 kPa	1044.89 ± 0.76	–	–
338.15 K, 60000 kPa	1049.83 ± 0.88	–	–

Conditions	surface tension liquid-gas [mN/m]	vapor or sublimation pressure [kPa]
313.15 K	–	0.21 ± 0.1
315.65 K	35.74 ± 0.26	–
318.15 K	35.48 ± 0.26	0.31 ± 0.1
320.65 K	35.23 ± 0.26	–
323.15 K	34.98 ± 0.26	0.43 ± 0.1
325.65 K	34.72 ± 0.25	–
328.15 K	34.47 ± 0.25	0.63 ± 0.1
330.65 K	34.22 ± 0.25	–
333.15 K	33.96 ± 0.25	0.86 ± 0.1
335.65 K	33.71 ± 0.25	–
338.15 K	33.46 ± 0.25	1.15 ± 0.1
343.15 K	–	1.55 ± 0.1
348.15 K	–	2.11 ± 0.1
353.15 K	–	2.72 ± 0.1
358.15 K	–	3.53 ± 0.1
363.15 K	–	4.51 ± 0.1
368.15 K	–	5.72 ± 0.1
373.15 K	–	7.22 ± 0.1
378.15 K	–	9.11 ± 0.1
383.15 K	–	11.18 ± 0.1
388.15 K	–	13.68 ± 0.1
393.15 K	–	16.64 ± 0.1
398.15 K	–	20.17 ± 0.1
403.15 K	–	24.22 ± 0.1
408.15 K	–	28.63 ± 0.11
413.15 K	–	34.22 ± 0.11
418.15 K	–	40.19 ± 0.11
423.15 K	–	47.32 ± 0.12
428.15 K	–	56.31 ± 0.12
433.15 K	–	65.02 ± 0.13
438.15 K	–	74.02 ± 0.13
443.15 K	–	84.98 ± 0.14
448.15 K	–	97.93 ± 0.15

101.33 kPa, Vibrating tube method
Conditions	mass density [kg/m3]
315.65 K	1035 ± 0.27
318.15 K	1032.83 ± 0.27
320.65 K	1030.65 ± 0.27
323.15 K	1028.47 ± 0.27
325.65 K	1026.28 ± 0.27
328.15 K	1024.08 ± 0.26
330.65 K	1021.88 ± 0.26
333.15 K	1019.68 ± 0.26
335.65 K	1017.46 ± 0.26
338.15 K	1015.24 ± 0.26
